Literature values as cited in patent US20260216238A1, “TETRATHIOMOLYBDIC ACID FOR USE IN TREATING COPPER METABOLISM-ASSOCIATED DISEASES OR DISORDERS (WILSON DISEASE)” (Alexion Pharmaceuticals, Inc., priority 2023, published 2026).

System: patients with Wilson disease (WD)
Details: cited from earlier work; for patients with worsening of neurological symptoms on initiation of treatment: in vivo

Row | SMILES | patients with severe side effects requiring drug withdrawal (Schilsky et al., 2022) | patients with worsening of neurological symptoms on initiation of treatment | patients with gastric irritation or gastritis (Schilsky et al., 2022) | hepatic treatment failure (long-term follow-up (Weiss et al., 2011))
1 | CC(C)(S)[C@@H](N)C(=O)O [penicillamine, (2S)-2-amino-3-methyl-3-sulfanylbutanoic acid] | approximately 30% | approximately 25% |  | 
2 | NCCNCCNCCN [trientine, N′-[2-(2-aminoethylamino)ethyl]ethane-1,2-diamine] |  | approximately 25% |  | 
3 | [Zn] [zinc] |  |  | ~ ⅓ | 14/88
